Experimental data taken from patent US9415055B2, “Cyclic amines” (H. Lundbeck A/S, priority 2012, dated 2016).

biological target: P2X7 receptor (Homo sapiens (Human), UniProt Q99572); experiment: P2X7 FLIPR assay: antagonism of BzATP response in 293 HEK cells stably expressing P2X7 receptor; type: cell-based; details: FLIPR fluorescence (Fluo-4), agonist BzATP, 293 HEK cells stably transfected with P2X7 receptor
Description: Cells were plated to cell density of approximately 15,000 cells/well in 384-well assay plates (50 μl/well) with 1.5% low serum media (DMEM, 1.5% BCS, 1% L-glut (2 mM), 1% P/S).
Cells were plated to cell density of approximately 15,000 cells/well in 384-well assay plates (50 μl/well) with 1.5% low serum media (DMEM, 1.5% FBS, 1% L-glut (2 mM), 10 mM HEPES, 1% P/S). Cells were plated 24 hours prior to assay. Cells expressing human, rat or mouse P2X7 receptor were assayed in the following manner.
Fluo-4 NW dye mix (Molecular Probes, Inc., Eugene, Oreg., USA) was prepared in buffer (see manufacturer's instructions). Cell plates were removed from the 37° C. incubator, the media discarded and then 30 μL of dye was added to each well. Plates were placed in the 37° C., non-CO2 incubator for 30 minutes and then room temperature for 30 minutes.
Compound mixtures (A) were added to assay plates containing cells and placed at room temperature for 30 minutes, then BzATP (B) was added. Fluorescence was read using the Tetra FLIPR® (Molecular Devices, Inc., Sunnyvale, Calif., USA) and IC50 values were calculated by standard methods to determine antagonist activity.

P2X7 receptor, sequence (Q99572 whole entry): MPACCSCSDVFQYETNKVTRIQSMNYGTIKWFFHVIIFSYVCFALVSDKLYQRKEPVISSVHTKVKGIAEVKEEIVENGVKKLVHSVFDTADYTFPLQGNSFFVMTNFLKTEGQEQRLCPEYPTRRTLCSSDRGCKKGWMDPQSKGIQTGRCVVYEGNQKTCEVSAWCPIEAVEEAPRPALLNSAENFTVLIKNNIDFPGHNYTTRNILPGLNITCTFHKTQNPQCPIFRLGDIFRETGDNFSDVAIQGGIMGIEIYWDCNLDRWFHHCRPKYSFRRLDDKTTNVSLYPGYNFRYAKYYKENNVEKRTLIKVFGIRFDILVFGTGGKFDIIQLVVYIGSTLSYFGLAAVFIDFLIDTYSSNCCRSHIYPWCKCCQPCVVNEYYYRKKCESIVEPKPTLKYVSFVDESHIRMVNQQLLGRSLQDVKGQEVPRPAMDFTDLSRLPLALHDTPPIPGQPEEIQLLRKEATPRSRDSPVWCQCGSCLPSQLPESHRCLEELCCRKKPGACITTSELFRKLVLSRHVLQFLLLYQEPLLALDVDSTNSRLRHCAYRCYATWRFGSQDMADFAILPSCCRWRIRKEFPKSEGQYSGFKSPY

Structure (SMILES) | IC50
O=C(NCC(c1cnc(C(F)(F)F)nc1)N1CCOCC1)c1cccc(C(F)(F)F)c1Cl (single isomer, unassigned; (-)) [(−)2-chloro-N-[2-morpholino-2-[2-(trifluoromethyl)pyrimidin-] [(−)2-Chloro-N-[2-morpholino-2-[2-(trifluoromethyl)pyrimidin-5-yl]ethyl]-3-(trifluoromethyl)benzamide] | 9.9 nM
Cc1ncc(C(CNC(=O)c2cccc(F)c2Cl)N2CCCC(F)(F)C2)cn1 (single isomer, unassigned; (-)) [(−)2-chloro-N-[2-(3,3-difluoro-1-piperidyl)-2-(2-methylpyrim] [(−)2-chloro-3-fluoro-N-(2-(3,3-difluoropiperidin-1-yl)-2-(2-methylpyrimidin-5-yl)ethyl)benzamide] | 41 nM
COc1cccc(C(=O)NCC(c2cnc(C(F)(F)F)nc2)N2CCOCC2)c1Cl (single isomer, unassigned; (-)) [(−)2-chloro-3-methoxy-N-[2-morpholino-2-[2-(trifluoromethyl)] [(−)2-chloro-3-methoxy-N-(2-morpholino-2-(2-(trifluoromethyl)pyrimidin-5-yl)ethyl)benzamide] | 8.2 nM
O=C(NCC(c1cnc(C2CC2)nc1)N1CCC(F)(F)CC1)c1c(F)cccc1Cl (single isomer, unassigned; (+)) [(+)2-chloro-N-[2-(2-cyclopropylpyrimidin-5-yl)-2-(4,4-difluo] [(+)2-chloro-6-fluoro-N-(2-(2-cyclopropylpyrimidin-5-yl)-2-(4,4-difluoropiperidin-1-yl)ethyl)benzamide] | 9.9 nM
COc1cccc(C(=O)NCC(c2cnc(C(F)(F)F)nc2)N2CCOCC2)c1Cl (single isomer, unassigned; (+)) [(+)2-chloro-3-methoxy-N-[2-morpholino-2-[2-(trifluoromethyl)] [(+)2-chloro-3-methoxy-N-(2-morpholino-2-(2-(trifluoromethyl)pyrimidin-5-yl)ethyl)benzamide] | 16 nM
O=C(NCC(c1ccc(C(F)F)nc1)N1CCC(F)(F)CC1)c1c(Cl)cccc1Cl (single isomer, unassigned; (-)) [(−)2,6-dichloro-N-[2-[6-(difluoromethyl)-3-pyridyl]-2-(4,4-d] [(−)2,6-dichloro-N-(2-(2-(difluoromethyl)pyridin-5-yl)-2-(4,4-difluoropiperidin-1-yl)ethyl)benzamide] | 5.5 nM
COc1cccc(C(=O)NCC(c2ccc(C(F)F)nc2)N2CCC(F)(F)CC2)c1Cl (single isomer, unassigned; (-)) [(−)2-chloro-N-[2-[6-(difluoromethyl)-3-pyridyl]-2-(4,4-diflu] [(−)2-chloro-3-methoxy-N-(2-(2-(difluoromethyl)pyridin-5-yl)-2-(4,4-difluoropiperidin-1-yl)ethyl)benzamide] | 1.9 nM
COc1ccccc1C(=O)NCC(c1ccc(C(F)(F)F)nc1)N1CCOCC1 (single isomer, unassigned; (+)) [(+)-2-methoxy-N-(2-morpholino-2-(6-(trifluoromethyl)pyridin-] [(+)2-1\4ethoxy-N-[2-morpholin-4-yl-2-(6-trifluoromethyl-pyridin-3-yl)-ethyl]-benzamide] | 98 nM
COc1cccc(C(=O)NCC(c2ccc(C(F)F)nc2)N2CCC(F)(F)CC2)c1Cl (single isomer, unassigned; (+)) [(+)2-chloro-N-[2-[6-(difluoromethyl)-3-pyridyl]-2-(4,4-diflu] [(+)2-chloro-3-methoxy-N-(2-(2-(difluoromethyl)pyridin-5-yl)-2-(4,4-difluoropiperidin-1-yl)ethyl)benzamide] | 2.3 nM
COc1ccc(C(CNC(=O)c2ccccc2C)N2CCCCC2)cc1 (stereo not drawn) [N-[2-(4-Methoxy-phenyl)-2-piperidin-1-yl-ethyl]-2-methyl-benzamide] | 3900 nM
O=C(NCC(c1ccc(Cl)cc1)N1CCCOCC1)c1cccc(Cl)c1Cl (stereo not drawn) [2,3-dichloro-N-(2-(4-chlorophenyl)-2-(1,4-oxazepan-4-yl)ethyl)benzamide] | 17 nM
O=C(NCC(c1cnc(C(F)(F)F)nc1)N1CCC(F)(F)CC1)c1cccc(F)c1Cl (single isomer, unassigned; (-)) [(−)2-chloro-N-[2-(4,4-difluoro-1-piperidyl)-2-[2-(trifluorom] [(−)2-chloro-N-(2-(4,4-difluoropiperidin-1-yl)-2-(2-(trifluoromethyl)pyrimidin-5-yl)ethyl)-3-fluorobenzamide] | 4.2 nM
Cc1cccc(C(=O)NC[C@H](c2ccc(Cl)cc2)N2CCOCC2)c1Cl [2-Chloro-N-[(S)-2-(4-chloro-phenyl)-2-morpholin-4-yl-ethyl]-3-methyl-benzamide] | 0.53 nM
Cc1ncc(C(CNC(=O)c2cccc(Cl)c2Cl)N2CCC(F)CC2)cn1 (single isomer, unassigned; (+)) [(+)2,3-dichloro-N-[2-(4-fluoro-1-piperidyl)-2-(2-methylpyrim] [(+2,3-dichloro-N-(2-(4-fluoropiperidin-1-yl)-2-(2-methylpyrimidin-5-yl)ethyl)benzamide] | 6.5 nM
Cc1ncc(C(CNC(=O)c2c(Cl)cccc2Cl)N2CCOCC2)cn1 (stereo not drawn) [2,6-dichloro-N-(2-(2-methylpyrimidin-5-yl)-2-morpholinoethyl)benzamide] | 120 nM
Cn1cc(C(CNC(=O)c2cccc(Cl)c2Cl)N2CCC(F)(F)CC2)cn1 (single isomer, unassigned; (+)) [(+)2,3-dichloro-N-[2-(4,4-difluoro-1-piperidyl)-2-(1-methylp] [(+)2,3-dichloro-N-(2-(4,4-difluoropiperidin-1-yl)-2-(1-methyl-1H-pyrazol-4-yl)ethyl)benzamide] | 12 nM
Cc1ncc(C(CNC(=O)c2ccc(Cl)cc2Cl)N2CCC(Cl)CC2)cn1 (stereo not drawn) [2,4-dichloro-N-(2-(4-chloropiperidin-1-yl)-2-(2-methylpyrimidin-5-yl)ethyl)benzamide] | 280 nM
Cc1ncc(C(CNC(=O)c2c(F)cccc2F)N2CCOCC2)cn1 (stereo not drawn) [2,6-difluoro-N-(2-(2-methylpyrimidin-5-yl)-2-morpholinoethyl)benzamide] | 1100 nM
O=C(NCC(c1cnc(C(F)(F)F)nc1)N1CCC(F)(F)CC1)c1cc(F)cc(Cl)c1Cl (single isomer, unassigned; (+)) [(+)2,3-dichloro-N-[2-(4,4-difluoro-1-piperidyl)-2-[2-(triflu] [(+)2,3-dichloro-5-fluoro-N-(2-(4,4-difluoropiperidin-1-yl)-2-(2-(trifluoromethyl)pyrimidin-5-yl)ethyl)benzamide] | 4.9 nM
COc1cccc(C(=O)NCC(c2cnc(C(F)(F)F)nc2)N2CCC(F)(F)CC2)c1Cl (single isomer, unassigned; (+)) [(+)2-chloro-N-[2-(4,4-difluoro-1-piperidyl)-2-[2-(trifluorom] [(+)2-chloro-N-(2-(4,4-difluoropiperidin-1-yl)-2-(2-(trifluoromethyl)pyrimidin-5-yl)ethyl)-3-methoxybenzamide] | 3.6 nM
O=C(NCC(c1cnc(C(F)(F)F)nc1)N1CCOCC1)c1ccccc1F (single isomer, unassigned; (-)) [(−)2-Fluoro-N-[2-morpholino-2-[2-(trifluoromethyl)pyrimidin-5-yl]ethyl]benzamide] | 44 nM
COc1ccc(C(=O)NCC(c2cnc(C(F)(F)F)nc2)N2CCC(F)(F)CC2)c(Cl)c1OC (single isomer, unassigned; (+)) [(+)2-chloro-N-[2-(4,4-difluoro-1-piperidyl)-2-[2-(trifluorom] [(+)2-chloro-3,4-dimethoxy-N-(2-(4,4-difluoropiperidin-1-yl)-2-(2-(trifluoromethyl)pyrimidin-5-yl)ethyl)benzamide] | 14 nM
COc1cccc(C(=O)NCC(c2ccc(F)cc2)N2CCC(F)(F)CC2)c1Cl (single isomer, unassigned; (-)) [(−)2-chloro-N-(2-(4,4-difluoropiperidin-1-yl)-2-(4-fluorophenyl)ethyl)-3-methoxybenzamide] | 2.6 nM
Cc1ncc(C(CNC(=O)c2c(F)cccc2Cl)N2CCC(F)(F)CC2)cn1 (single isomer, unassigned; (-)) [(−)2-chloro-N-[2-(4,4-difluoro-1-piperidyl)-2-(2-methylpyrim] [(−)2-chloro-6-fluoro-N-(2-(4,4-difluoropiperidin-1-yl)-2-(2-methylpyrimidin-5-yl)ethyl)benzamide] | 32 nM
O=C(NCC(c1cnc(C(F)(F)F)nc1)N1CCC(F)CC1)c1cccc(Cl)c1Cl (single isomer, unassigned; (-)) [(−)2,3-dichloro-N-[2-(4-fluoro-1-piperidyl)-2-[2-(trifluorom] [(−)2,3-dichloro-N-(2-(4-fluoropiperidin-1-yl)-2-(2-(trifluoromethyl)pyrimidin-5-yl)ethyl)benzamide] | 4.7 nM
Cc1ncc(C(CNC(=O)c2cccc(Cl)c2Cl)N2CCC(C)C2)cn1 (stereo not drawn) [2,3-dichloro-N-(2-(2-methylpyrimidin-5-yl)-2-(3-methylpyrrolidin-1-yl)ethyl)benzamide] | 1000 nM
O=C(NCC(c1cnc(C2CC2)nc1)N1CCC(F)(F)CC1)c1cccc(Cl)c1Cl (single isomer, unassigned; (+)) [(+)2,3-dichloro-N-[2-(2-cyclopropylpyrimidin-5-yl)-2-(4,4-di] [(+)2,3-dichloro-N-(2-(2-cyclopropylpyrimidin-5-yl)-2-(4,4-difluoropiperidin-1-yl)ethyl)benzamide] | 4.3 nM
